From ChEMBL document CHEMBL3259629, “Discovery and optimization of piperidyl-1,2,3-triazole ureas as potent, selective, and in vivo-active inhibitors of α/β-hydrolase domain containing 6 (ABHD6)” (J Med Chem, 2013)

How the values were obtained:
Conditions in all cases: Neuro2a, 3 nM
[1] = target: T1, 85/88 kDa calcium-independent phospholipase A2 (Mus musculus) (UniProt P97819)
T1 sequence (whole entry): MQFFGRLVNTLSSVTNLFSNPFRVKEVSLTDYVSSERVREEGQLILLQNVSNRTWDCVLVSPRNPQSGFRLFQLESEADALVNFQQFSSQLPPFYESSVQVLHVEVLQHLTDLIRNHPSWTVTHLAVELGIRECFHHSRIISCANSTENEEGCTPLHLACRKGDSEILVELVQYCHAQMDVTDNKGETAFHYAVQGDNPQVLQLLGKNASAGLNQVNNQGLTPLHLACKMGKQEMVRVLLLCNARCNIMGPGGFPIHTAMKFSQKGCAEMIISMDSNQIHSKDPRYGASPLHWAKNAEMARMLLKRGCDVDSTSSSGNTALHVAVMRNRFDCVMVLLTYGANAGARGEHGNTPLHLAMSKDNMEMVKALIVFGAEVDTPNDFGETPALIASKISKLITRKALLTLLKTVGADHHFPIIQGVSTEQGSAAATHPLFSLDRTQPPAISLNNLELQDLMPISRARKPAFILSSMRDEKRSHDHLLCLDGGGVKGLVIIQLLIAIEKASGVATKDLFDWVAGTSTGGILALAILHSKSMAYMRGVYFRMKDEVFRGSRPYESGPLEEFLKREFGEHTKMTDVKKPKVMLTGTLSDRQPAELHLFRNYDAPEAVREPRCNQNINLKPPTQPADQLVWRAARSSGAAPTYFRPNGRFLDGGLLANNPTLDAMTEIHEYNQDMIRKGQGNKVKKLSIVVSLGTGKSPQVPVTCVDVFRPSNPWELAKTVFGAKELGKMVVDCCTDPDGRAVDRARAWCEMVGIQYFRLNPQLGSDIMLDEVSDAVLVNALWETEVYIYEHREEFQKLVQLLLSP
Description: Inhibition of Pla2g6 in mouse Neuro2a cells at 3 nM after 4 hrs by ABPP-SILAC assay

[2] = target: T2, Platelet-activating factor acetylhydrolase IB subunit alpha2 (Mus musculus) (UniProt Q61206)
T2 sequence (whole entry): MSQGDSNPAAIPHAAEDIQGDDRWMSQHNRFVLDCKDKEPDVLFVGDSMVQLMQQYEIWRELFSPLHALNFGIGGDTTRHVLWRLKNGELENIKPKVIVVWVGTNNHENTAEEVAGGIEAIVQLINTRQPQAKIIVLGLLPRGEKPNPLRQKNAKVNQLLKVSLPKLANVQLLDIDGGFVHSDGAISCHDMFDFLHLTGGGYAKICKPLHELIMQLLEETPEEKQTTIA
Description: Inhibition of Pafah1b2 in mouse Neuro2a cells at 3 nM after 4 hrs by ABPP-SILAC assay

[3] = target: Serine hydrolase RBBP9 (Mus musculus) (UniProt O88851)
Description: Inhibition of Rbbp9 in mouse Neuro2a cells at 3 nM after 4 hrs by ABPP-SILAC assay

[4] = target: T3, Protein phosphatase methylesterase 1 (Mus musculus) (UniProt Q8BVQ5)
T3 sequence (whole entry): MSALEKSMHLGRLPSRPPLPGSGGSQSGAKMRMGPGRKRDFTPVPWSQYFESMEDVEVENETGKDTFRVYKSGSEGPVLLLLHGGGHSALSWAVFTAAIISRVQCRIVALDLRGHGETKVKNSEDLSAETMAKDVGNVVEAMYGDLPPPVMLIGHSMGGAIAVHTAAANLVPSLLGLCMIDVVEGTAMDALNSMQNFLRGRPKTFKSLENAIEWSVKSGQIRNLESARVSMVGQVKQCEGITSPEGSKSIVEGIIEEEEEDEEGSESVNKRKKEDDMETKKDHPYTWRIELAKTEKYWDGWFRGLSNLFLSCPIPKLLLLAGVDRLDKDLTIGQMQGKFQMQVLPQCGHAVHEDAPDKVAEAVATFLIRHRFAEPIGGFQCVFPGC
Description: Inhibition of Ppme1 in mouse Neuro2a cells at 3 nM after 4 hrs by ABPP-SILAC assay

[5] = target: T4, Retinoid-inducible serine carboxypeptidase (Mus musculus) (UniProt Q920A5)
T4 sequence (whole entry): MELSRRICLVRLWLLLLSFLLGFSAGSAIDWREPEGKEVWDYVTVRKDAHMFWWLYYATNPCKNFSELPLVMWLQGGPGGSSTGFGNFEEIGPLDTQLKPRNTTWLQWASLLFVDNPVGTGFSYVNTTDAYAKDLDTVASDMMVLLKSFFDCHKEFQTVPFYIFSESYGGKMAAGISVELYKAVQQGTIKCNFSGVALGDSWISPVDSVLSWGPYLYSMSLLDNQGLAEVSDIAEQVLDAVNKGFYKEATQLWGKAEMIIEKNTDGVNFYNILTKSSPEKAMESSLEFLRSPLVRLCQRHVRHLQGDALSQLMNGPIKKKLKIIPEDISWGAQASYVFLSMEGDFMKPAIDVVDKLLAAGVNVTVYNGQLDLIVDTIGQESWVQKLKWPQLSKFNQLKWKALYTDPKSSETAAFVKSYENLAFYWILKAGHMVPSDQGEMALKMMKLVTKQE
Description: Inhibition of Scpep1 in mouse Neuro2a cells at 3 nM after 4 hrs by ABPP-SILAC assay

[6] = target: T5, Platelet-activating factor acetylhydrolase IB subunit alpha1 (Mus musculus) (UniProt Q61205)
T5 sequence (whole entry): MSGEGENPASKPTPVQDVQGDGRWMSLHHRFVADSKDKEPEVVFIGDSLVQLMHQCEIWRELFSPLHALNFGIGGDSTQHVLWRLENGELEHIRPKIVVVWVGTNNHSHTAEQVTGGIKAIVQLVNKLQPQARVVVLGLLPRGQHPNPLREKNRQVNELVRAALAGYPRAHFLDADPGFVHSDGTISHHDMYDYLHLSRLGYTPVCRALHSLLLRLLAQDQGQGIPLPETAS
Description: Inhibition of Pafah1b3 in mouse Neuro2a cells at 3 nM after 4 hrs by ABPP-SILAC assay

[7] = target: Dipeptidyl peptidase 2 (Mus musculus) (UniProt Q9ET22)
Description: Inhibition of Dpp7 in mouse Neuro2a cells at 3 nM after 4 hrs by ABPP-SILAC assay

[8] = target: T6, Lysophosphatidylserine lipase ABHD12 (Mus musculus) (UniProt Q99LR1)
T6 sequence (whole entry): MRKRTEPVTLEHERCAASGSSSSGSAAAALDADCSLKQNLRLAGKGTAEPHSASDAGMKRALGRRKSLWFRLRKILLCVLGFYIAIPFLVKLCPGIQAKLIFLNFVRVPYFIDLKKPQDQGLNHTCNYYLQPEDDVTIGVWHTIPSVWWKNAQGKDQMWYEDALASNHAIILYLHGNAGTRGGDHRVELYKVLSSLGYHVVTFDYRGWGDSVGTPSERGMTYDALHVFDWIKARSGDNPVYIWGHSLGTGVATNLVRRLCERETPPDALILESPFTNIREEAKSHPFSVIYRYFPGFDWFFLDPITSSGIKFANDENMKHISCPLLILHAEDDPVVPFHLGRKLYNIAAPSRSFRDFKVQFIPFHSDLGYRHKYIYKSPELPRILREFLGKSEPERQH
Description: Inhibition of Abhd12 in mouse Neuro2a cells at 3 nM after 4 hrs by ABPP-SILAC assay

Measured: inhibition

Dipeptidyl peptidase 2 (Mus musculus), sequence (Q9ET22 whole entry): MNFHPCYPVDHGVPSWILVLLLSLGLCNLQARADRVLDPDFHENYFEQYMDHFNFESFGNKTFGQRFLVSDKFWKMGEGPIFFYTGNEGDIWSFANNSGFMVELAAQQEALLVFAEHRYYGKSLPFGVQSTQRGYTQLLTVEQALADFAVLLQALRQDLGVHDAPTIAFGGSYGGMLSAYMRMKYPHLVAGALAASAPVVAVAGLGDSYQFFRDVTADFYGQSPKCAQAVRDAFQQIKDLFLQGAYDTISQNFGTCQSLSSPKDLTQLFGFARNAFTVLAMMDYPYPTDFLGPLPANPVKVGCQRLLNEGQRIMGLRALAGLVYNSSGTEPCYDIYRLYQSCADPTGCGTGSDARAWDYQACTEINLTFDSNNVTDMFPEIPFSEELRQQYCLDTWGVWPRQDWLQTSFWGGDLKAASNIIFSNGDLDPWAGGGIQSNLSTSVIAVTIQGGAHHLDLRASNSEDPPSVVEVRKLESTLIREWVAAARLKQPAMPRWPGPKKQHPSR
Serine hydrolase RBBP9 (Mus musculus), sequence (O88851 whole entry): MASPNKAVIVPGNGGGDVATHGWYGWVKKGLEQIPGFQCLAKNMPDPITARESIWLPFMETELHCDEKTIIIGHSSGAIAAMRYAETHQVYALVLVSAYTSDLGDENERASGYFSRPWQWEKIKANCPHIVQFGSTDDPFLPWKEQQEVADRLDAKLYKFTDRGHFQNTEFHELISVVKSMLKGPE

O=C(N1CCCCC1c1ccccc1)n1cc(-c2ccc(-c3cccc(CO)c3)cc2)nn1 (racemic)
< 50%: all assays above

O=C(c1cccc(-c2ccc(-c3cn(C(=O)N4CCCCC4c4ccccc4)nn3)cc2)c1)N1CCCCC1 (racemic)
< 50%: all assays above

O=C(O)c1cccc(-c2ccc(-c3cn(C(=O)N4CCCCC4Cc4ccccc4)nn3)cc2)c1 (racemic)
< 50%: all assays above
